Experimental data reported in patent US9512120B2, “Microbicidally active imidazopyridine derivatives” (Syngenta Participations AG, priority 2013, dated 2016).

Experiments:
Pyrenophora teres = Pyrenophora teres / barley / leaf disc preventative (net blotch); type: in vivo; conditions: foliar, barley leaf segments cv Hasso, inoculated two days after application, assessed 5-7 days after application, read-out: control of Pyrenophora teres (disease control compared to untreated)
Method: Pyrenophora Teres/Barley/Leaf Disc Preventative (Net Blotch): Barley leaf segments cv Hasso are placed on agar in a 24-well plate and sprayed with formulated test compound diluted in water at an application rate of 200 ppm. The leaf segments are inoculated with a spore suspension of the fungus two days after application of the test solution. The inoculated leaf segments are incubated at 20° C. and 65% relative humidity under a light regime of 12/12 h (light/dark) in a climate cabinet and the activity of a compound is assessed as disease control compared to untreated when an appropriate level of disease damage appears in untreated check leaf segments (5-7 days after application).

[1] = tested on: Botryotinia fuckeliana (Botrytis cinerea); assay: Botryotinia fuckeliana (Botrytis cinerea) / liquid culture (gray mould); type: cell-based; conditions: Vogels broth, 24° C., 3-4 days after application, read-out: control of Botryotinia fuckeliana (inhibition of growth, photometric)
Method: (§1) Botryotinia Fuckeliana (Botrytis cinerea)/Liquid Culture (Gray Mould): Conidia of the fungus from cryogenic storage were directly mixed into nutrient broth (Vogels broth). After placing a DMSO solution of test compound into a 96-well microtiter plate at an application rate of 200 ppm, the nutrient broth containing the fungal spores was added. The test plates were incubated at 24° C. and the inhibition of growth was determined photometrically 3-4 days after application.

[2] = tested on: Mycosphaerella graminicola (Septoria tritici); assay: Mycosphaerella graminicola (Septoria tritici) / liquid culture (Septoria blotch); type: cell-based; conditions: Zymoseptoria tritici, PDB, 24° C., 4-5 days after application, read-out: control of Mycosphaerella graminicola (inhibition of growth, photometric)
Method: as §1, with “Mycosphaerella graminicola (Septoria tritici)/Liquid” for “Botryotinia Fuckeliana (Botrytis cinerea)/Liquid”, “(Septoria Blotch):” for “(Gray Mould):”, “(PDB potato dextrose” for “(Vogels”, “4-5” for “3-4”

[3] = tested on: Thanatephorus cucumeris (Rhizoctonia solani); assay: Thanatephorus cucumeris (Rhizoctonia solani) / liquid culture (foot rot, damping-off); type: cell-based; conditions: PDB, 24° C., 3-4 days after application, read-out: control of Thanatephorus cucumeris (inhibition of growth, photometric)
Method: Thanatephorus cucumeris (Rhizoctonia solani)/Liquid Culture (Foot Rot, Damping-Off): Mycelia fragments of a newly grown liquid culture of the fungus are directly mixed into nutrient broth (PDB potato dextrose broth). After placing a DMSO solution of the test compounds into a 96-well microtiter plate at an application rate of 200 ppm, the nutrient broth containing the fungal material was added. The test plates were incubated at 24° C. and the inhibition of growth was determined photometrically 3-4 days after application.

[4] = tested on: Puccinia recondita f. sp. Tritici; assay: Puccinia recondita f. sp. tritici / wheat / leaf disc preventative (brown rust); type: in vivo; conditions: foliar, wheat leaf segments cv Kanzler, inoculated 1 day after application, assessed 7-9 days after application, read-out: control of Puccinia recondita f. sp. Tritici (percent disease control compared to untreated)
Method: Puccinia recondita f. Sp. Tritici/Wheat/Leaf Disc Preventative (Brown Rust): Wheat leaf segments cultivated variety (cv) Kanzler were placed on agar in 24-well plates and sprayed with formulated test compound diluted in water at an application rate of 200 ppm. The leaf disks were inoculated with a spore suspension of the fungus 1 day after application. The inoculated leaf segments were incubated at 19° C. and 75% relative humidity under a light regime of 12/12 h (light/dark) in a climate cabinet and the activity of a compound was assessed as percent disease control compared to untreated when an appropriate level of disease damage appears in untreated check leaf segments (7-9 days after application).

Gaeumannomyces graminis = Gaeumannomyces graminis / liquid culture (take-all of cereals); type: cell-based; conditions: PDB, 24° C., 4-5 days after application, read-out: control of Gaeumannomyces graminis (inhibition of growth, photometric)
Method: (§2) Gaeumannomyces graminis/Liquid Culture (Take-all of Cereals): Mycelial fragments of the fungus from cryogenic storage were directly mixed into nutrient broth (PDB potato dextrose broth). After placing a DMSO solution of test compound into a 96-well microtiter plate at an application rate of 200 ppm, the nutrient broth Cp.33, containing the fungal spores is added. The test plates were incubated at 24° C. and the inhibition of growth was determined photometrically 4-5 days after application.

[5] = tested on: Glomerella lagenarium (Colletotrichum lagenarium); assay: Glomerella lagenarium (Colletotrichum lagenarium) / liquid culture (anthracnose); type: cell-based; conditions: Colletotrichum orbiculare, PDB, 24° C., 3-4 days after application, read-out: control of Glomerella lagenarium (inhibition of growth, photometric)
Method: as §2, with “Glomerella lagenarium (Colletotrichum lagenarium)/Liquid” for “Gaeumannomyces graminis/Liquid”, “(Anthracnose): Conidia” for “(Take-all of Cereals): Mycelial fragments”, “broth” for “broth Cp.33,”, “was” for “is”, “is measured” for “was determined”, “3-4” for “4-5”

CCn1c(-n2ncnc2N)nc2cncc(-c3ccc(OC)c(F)c3)c21 [Compound 43, 2-[1-ethyl-7-(3-fluoro-4-methoxyphenyl)imidazo[4,5-c]pyridin-2-yl]-1,2,4-triazol-3-amine]
≥ 80%: pest or weed control at 200 ppm (Pyrenophora teres) | inhibition at 20 ppm [1] | inhibition at 20 ppm [2] | inhibition at 20 ppm [3]

CCn1c(-n2ncnc2N)nc2cncc(-c3ccc(OC)nc3OC)c21 [Compound 56, 2-[7-(2,6-dimethoxypyridin-3-yl)-1-ethylimidazo[4,5-c]pyridin-2-yl]-1,2,4-triazol-3-amine]
≥ 80%: pest or weed control at 200 ppm [4] | pest or weed control at 200 ppm (Pyrenophora teres) | inhibition at 20 ppm [1] | inhibition at 20 ppm [2] | inhibition at 20 ppm [3]

CCn1c(-n2ncnc2N)nc2cncc(-c3cccc(C)c3C)c21 [Compound 82, 2-[7-(2,3-dimethylphenyl)-1-ethylimidazo[4,5-c]pyridin-2-yl]-1,2,4-triazol-3-amine]
≥ 80%: pest or weed control at 200 ppm [4] | pest or weed control at 200 ppm (Pyrenophora teres) | inhibition at 20 ppm [1] | inhibition at 20 ppm [2] | inhibition at 20 ppm (Gaeumannomyces graminis) | inhibition at 20 ppm [3]

CCCn1c(-n2ncnc2N)nc2cncc(/C(C)=N/OCC=C(Cl)Cl)c21 [Compound 187]
≥ 80%: pest or weed control at 200 ppm [4] | inhibition at 20 ppm [2] | inhibition at 20 ppm (Gaeumannomyces graminis) | inhibition at 20 ppm [3]

CCCn1c(-n2ncnc2N)nc2cncc(C#N)c21 [Compound 129, 2-(5-amino-1,2,4-triazol-1-yl)-1-propylimidazo[4,5-c]pyridine-7-carbonitrile]
≥ 80%: inhibition at 20 ppm [5]

CCn1c(-n2ncnc2N)nc2cncc(-c3ccc(-c4ccc(F)cc4)nc3)c21 [Compound 54, 2-[1-ethyl-7-[6-(4-fluorophenyl)pyridin-3-yl]imidazo[4,5-c]pyridin-2-yl]-1,2,4-triazol-3-amine]
≥ 80%: pest or weed control at 200 ppm [4] | inhibition at 20 ppm [1] | inhibition at 20 ppm [2] | inhibition at 20 ppm [3]

CCn1c(-n2ncnc2N)nc2cncc(-c3ccc(F)cc3C)c21 [Compound 92, 2-[1-ethyl-7-(4-fluoro-2-methylphenyl)imidazo[4,5-c]pyridin-2-yl]-1,2,4-triazol-3-amine]
≥ 80%: pest or weed control at 200 ppm (Pyrenophora teres) | inhibition at 20 ppm [1] | inhibition at 20 ppm [2] | inhibition at 20 ppm (Gaeumannomyces graminis) | inhibition at 20 ppm [3]

CCn1c(-n2ncnc2N)nc2cncc(-c3cc(C)sc3C)c21 [Compound 52, 2-[7-(2,5-dimethylthiophen-3-yl)-1-ethylimidazo[4,5-c]pyridin-2-yl]-1,2,4-triazol-3-amine]
≥ 80%: inhibition at 20 ppm [1] | inhibition at 20 ppm [2] | inhibition at 20 ppm [3]

CCn1c(-n2ncnc2N)nc2cncc(-c3ccc(Cl)c(Cl)c3)c21 [Compound 36, 2-[7-(3,4-dichlorophenyl)-1-ethylimidazo[4,5-c]pyridin-2-yl]-1,2,4-triazol-3-amine]
≥ 80%: pest or weed control at 200 ppm [4] | pest or weed control at 200 ppm (Pyrenophora teres) | inhibition at 20 ppm [2] | inhibition at 20 ppm [3]

CCn1c(-n2ncnc2N)nc2cncc(-c3ccc(Cl)c(C(F)(F)F)c3)c21 [Compound 49]
≥ 80%: pest or weed control at 200 ppm (Pyrenophora teres) | inhibition at 20 ppm [1] | inhibition at 20 ppm [2] | inhibition at 20 ppm [3]

N#Cc1cncc2nc(-n3ncnc3N)n(C3CCCCC3)c12 [Compound 131, 2-(5-amino-1,2,4-triazol-1-yl)-1-cyclohexylimidazo[4,5-c]pyridine-7-carbonitrile]
≥ 80%: inhibition at 20 ppm [5]

CCn1c(-n2ncnc2N)nc2cncc(-c3cccc(Cl)c3)c21 [Compound 34, 2-[7-(3-chlorophenyl)-1-ethylimidazo[4,5-c]pyridin-2-yl]-1,2,4-triazol-3-amine]
≥ 80%: pest or weed control at 200 ppm (Pyrenophora teres) | inhibition at 20 ppm [1] | inhibition at 20 ppm [2] | inhibition at 20 ppm [3]

Nc1ncnn1-c1nc2cnccc2n1C1CC1 [Compound 1, 2-(1-cyclopropylimidazo[4,5-c]pyridin-2-yl)-1,2,4-triazol-3-amine]
≥ 80%: pest or weed control at 200 ppm (Pyrenophora teres) | inhibition at 20 ppm [1] | inhibition at 20 ppm [2] | inhibition at 20 ppm (Gaeumannomyces graminis) | inhibition at 20 ppm [3]

CCn1c(-n2ncnc2N)nc2cncc(-c3cc(C)c(OC)c(C)c3)c21 [Compound 47, 2-[1-ethyl-7-(4-methoxy-3,5-dimethylphenyl)imidazo[4,5-c]pyridin-2-yl]-1,2,4-triazol-3-amine]
≥ 80%: pest or weed control at 200 ppm [4] | pest or weed control at 200 ppm (Pyrenophora teres) | inhibition at 20 ppm [3]

CCn1c(-n2ncnc2N)nc2cncc(/C(C)=N/OCC(C)C)c21 [Compound 162]
≥ 80%: pest or weed control at 200 ppm [4] | inhibition at 20 ppm [2] | inhibition at 20 ppm [3]

CCn1c(-n2ncnc2N)nc2cncc(-c3cccc(C(F)(F)F)c3)c21 [Compound 31, 2-[1-ethyl-7-[3-(trifluoromethyl)phenyl]imidazo[4,5-c]pyridin-2-yl]-1,2,4-triazol-3-amine]
≥ 80%: pest or weed control at 200 ppm (Pyrenophora teres) | inhibition at 20 ppm [1] | inhibition at 20 ppm [3]

CCn1c(-n2ncnc2N)nc2cncc(/C(C)=N/OC(C)C)c21 [Compound 167]
≥ 80%: pest or weed control at 200 ppm [4] | pest or weed control at 200 ppm (Pyrenophora teres) | inhibition at 20 ppm [2] | inhibition at 20 ppm [3]

CCn1c(-n2ncnc2N)nc2cncc(C#N)c21 [Compound 128, 2-(5-amino-1,2,4-triazol-1-yl)-1-ethylimidazo[4,5-c]pyridine-7-carbonitrile]
≥ 80%: inhibition at 20 ppm (Gaeumannomyces graminis) | inhibition at 20 ppm [3]

CCn1c(-n2ncnc2N)nc2cncc(-c3cccc(Cl)c3C)c21 [Compound 99, 2-[7-(3-chloro-2-methylphenyl)-1-ethylimidazo[4,5-c]pyridin-2-yl]-1,2,4-triazol-3-amine]
≥ 80%: pest or weed control at 200 ppm [4] | pest or weed control at 200 ppm (Pyrenophora teres) | inhibition at 20 ppm [1] | inhibition at 20 ppm [2] | inhibition at 20 ppm (Gaeumannomyces graminis) | inhibition at 20 ppm [3]

CCn1c(-n2ncnc2N)nc2cncc(C(C)=NOc3ccccc3)c21 [Compound 168]
≥ 80%: pest or weed control at 200 ppm [4] | pest or weed control at 200 ppm (Pyrenophora teres) | inhibition at 20 ppm [2] | inhibition at 20 ppm [3]

C=C(C)CO/N=C(\C)c1cncc2nc(-n3ncnc3N)n(CC)c12 [Compound 179]
≥ 80%: inhibition at 20 ppm [1] | inhibition at 20 ppm [2] | inhibition at 20 ppm [3]

CCn1c(-n2ncnc2N)nc2cncc(-c3ccc(C)c(C)c3)c21 [Compound 46, 2-[7-(3,4-dimethylphenyl)-1-ethylimidazo[4,5-c]pyridin-2-yl]-1,2,4-triazol-3-amine]
≥ 80%: inhibition at 20 ppm [1] | inhibition at 20 ppm [2] | inhibition at 20 ppm [3]

Nc1ncnn1-c1nc2cncc(-c3ccccc3F)c2n1C1CCCCC1 [Compound 127, 2-[1-cyclohexyl-7-(2-fluorophenyl)imidazo[4,5-c]pyridin-2-yl]-1,2,4-triazol-3-amine]
≥ 80%: inhibition at 20 ppm (Gaeumannomyces graminis)

Nc1ncnn1-c1nc2cncc(-c3ccccc3Cl)c2n1C1CCCCC1 [Compound 126, 2-[7-(2-chlorophenyl)-1-cyclohexylimidazo[4,5-c]pyridin-2-yl]-1,2,4-triazol-3-amine]
≥ 80%: inhibition at 20 ppm [1]
